# Entries after “also recorded” stand apart in the source; their conditions may differ.
# Tested on: CAR-expressing T cells
# Test: Assessment of CAR expression and activation by flow cytometry
# Type: cell-based
# Details: FITC coated beads or plate bound FITC; FIGS. 2A-2F
# Description: Cells were transferred to individual wells of a 96-well V-bottom plate, the plate was spun at 400×g for 5 min, cells were washed with 200 μL PBS and spun again at 400×g for 5 min. Cells were incubated for 10 min at room temperature in 50 μL/well Zombie NIR Fixable Viability Dye (diluted 1:3000 in PBS). Cells were then washed with […] buffer (1×PBS+2% FBS) and the plate was spun at 400×g for 5 min. Next, 50 μL/well of surface stain in FACS buffer were added to the cells and incubated for 45 min at 4° C.
# Cells were washed with 150 μL FACS buffer and the plate was spun at 400×g for 5 min. Cells were then fixed with 100 μL/well of BD Cytofix/Cytoperm buffer for 20 min at 4° C. Cells were then washed with 100 μL BD Perm/Wash diluted 10-fold in water and the plate was spun at 400×g for 5 min. Cells were washed again with 200 μL BD Perm/Wash diluted 10-fold in water and the plate was spun again at 400×g for 5 min. 50 μL/well of intracellular stain in 1×BD Perm/Wash was added to the cells and incubated for 30 min at 4° C. Cells were washed with 150 μL, FACS buffer, the plate was spun at 400×g for 5 min and the cells were resuspended in 200 μL FACS buffer for analysis using a Beckman Coulter CytoFLEX S cytometer. As depicted in FIGS. 2A-2F, CAR-expressing T cells expand in the presence of the antigen FITC and this expansion is enhanced with rapamycin. […]
substance,measurement,value
fluorescein isothiocyanate [FITC],expansion/enrichment of CAR-expressing T cells in the presence of the antigen FITC,enriched; also recorded: enhanced expansion and activation; also recorded: expand
